This note sets out measurements from patent US10604509B2, “Nrf2 regulators” (GlaxoSmithKline Intellectual Property Development Limited, priority 2015, dated 2020).

The structures appear in SMILES notation. Where a name gives a salt, the structure may show the parent alone.

The test system of one assay is NQO1 specific enzyme activity in BEAS-2B cells. In words: BEAS-2B NQO1 MTT assay. Conditions: BEAS-2B cells, 48 hours with compound, MTT readout; read-out: EC50 of NQO1 specific activity induction. It counts as cell-based. In a few lines:
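NQO1 specific activity, an NRF2 activation marker, read kinetically as absorbance change at 570 nm for 30 min after MTT cocktail addition to crude lysates of BEAS-2B cells exposed 48 h to compound. Three-parameter fit of Delta OD/min against log concentration gives EC50; lysate portion used for Cell Titer Glo.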
Background: Tetrazolium dyes change colour on reduction, which living cells bring about.
Turning to `CC[C@@H]1CN(Cc2cc(C(CCc3cn(CC)nn3)C(C)C(=O)O)ccc2C)Cc2ccccc2O1` (single isomer, unassigned; isomer 2) [Example 119], the concentration giving a half-maximal response (EC50) was 10 to 100 nM.

The assay is the same for the next values; noted with them: Homo sapiens, BEAS-2B, 48 h, BEAS-2B cells, 48 hours with compound, MTT readout; read-out: EC50 of NQO1 specific activity induction.
On to `CC[C@@H]1CN(Cc2cc([C@H](c3ccc4c(nnn4C)c3C)[C@H](C)C(=O)O)ccc2C)Cc2ccccc2O1` [Example 39, (2S,3R)-3-(1,4-Dimethyl-1H-benzo[d][1,2,3]triazol-5-yl)-3-(3-(((R)-2-ethyl-2,3-dihydrobenzo[f][1,4]oxazepin-4(5H)-yl)methyl)-4-methylphenyl)-2-methylpropanoic Acid], for which the EC50 lay in the range of 10 to 100 nM. On the same count and under the same terms, the same measure for `CC[C@@H]1CN(Cc2cc(C(CCc3cn(CC)nn3)CC(=O)NS(C)(=O)=O)ccc2C)Cc2cnccc2O1` (stereo partly drawn) [Example 234, 5-(1-Ethyl-1H-1,2,3-triazol-4-yl)-3-(3-(((R)-2-ethyl-2,3-dihydropyrido[3,4-f][1,4]oxazepin-4(5H)-yl)methyl)-4-methylphenyl)-N-(methylsulfonyl)pentanamide]: 1000 to 10000 nM. Same read-out and setting: the same measure for `CC[C@@H]1CN(Cc2cc(C(CC(=O)O)c3ccc4c(nnn4C)c3C)ccc2C)Cc2cc(C)ccc2O1` (stereo partly drawn) [Example 81, Ammonium 3-(1,4-dimethyl-1H-benzo[d][1,2,3]triazol-5-yl)-3-(3-(((R)-2-ethyl-7-methyl-2,3-dihydrobenzo[f][1,4]oxazepin-4(5H)-yl)methyl)-4-methylphenyl)propanate]: 10 to 100 nM; for `Cc1ccc(C(CC(=O)O)c2ccc3c(nnn3C)c2C)cc1CN1Cc2ccccc2OC(C(C)C)C1` (stereo not shown) [Example 72, 3-(1,4-dimethyl-1H-benzo[d][1,2,3]triazol-5-yl)-3-(3-((2-isopropyl-2,3-dihydrobenzo[f][1,4]oxazepin-4(5H)-yl)methyl)-4-methylphenyl)propanoic acid, formic acid salt]: 1000 to 10000 nM. The same measure, in the same setting: the same measure for `Cc1ccc([C@@H](c2ccc3c(nnn3C)c2C)C(C)(C)C(=O)O)cc1Cn1ccnc1CN1CCCCC1` [Example 150, (S)-3-(1,4-Dimethyl-1H-benzo[d][1,2,3]triazol-5-yl)-2,2-dimethyl-3-(4-methyl-3-((2-(piperidin-1-ylmethyl)-1H-imidazol-1-yl)methyl)phenyl) propanoic acid]: less than 1 nM; for `Cc1ccc(C(CC(=O)O)c2ccc3c(nnn3C)c2C)cc1CN1CCCn2cncc2C1` (stereo not shown) [Example 92, 3-(3-((6,7-Dihydro-5H-imidazo[1,5-a][1,4]diazepin-8(9H)-yl)methyl)-4-methylphenyl)-3-(1,4-dimethyl-1H-benzo[d][1,2,3]triazol-5-yl)propanoic acid, Sodium salt]: 1000 to 10000 nM. As to `CCC1CN(Cc2cc(C(CC(=O)O)c3cc(OC)c4c(nnn4C)c3C)ccc2C)Cc2ccccc2O1` (stereo not shown) [Example 70, 3-(3-((2-Ethyl-2,3-dihydrobenzo[f][1,4]oxazepin-4(5H)-yl)methyl)-4-methylphenyl)-3-(7-methoxy-1,4-dimethyl-1H-benzo[d][1,2,3]triazol-5-yl)propanoic Acid, Formic Acid Salt], the EC50 fell in the range of 10 to 100 nM. The same measure, in the same setting: to `Cc1ccc(C(CCc2cn(C)nn2)CC(=O)O)cc1Cn1ccnc1CC1CCCCC1` (stereo not shown) [Example 130, 3-(3-((2-(Cyclohexylmethyl)-1H-imidazol-1-yl)methyl)-4-methylphenyl)-5-(1-methyl-1H-1,2,3-triazol-4-yl)pentanoic Acid] belongs 100 to 1000 nM; to `Cc1ccc([C@@H](c2ccc3c(nnn3C)c2C)C(C)(C)C(=O)O)cc1Cn1ccnc1CN1CCCCCC1` [Example 126, (S)-3-(3-((2-(Azepan-1-ylmethyl)-1H-imidazol-1-yl)methyl)-4-methylphenyl)-3-(1,4-dimethyl-1H-benzo[d][1,2,3]triazol-5-yl)-2,2-dimethylpropanoate, Sodium salt], 1 to 10 nM; to `CCCC1CN(Cc2cc(C(CC(=O)O)c3ccc4c(nnn4C)c3C)ccc2C)Cc2ccccc2O1` (stereo not shown) [Example 71, 3-(1,4-dimethyl-1H-benzo[d][1,2,3]triazol-5-yl)-3-(4-methyl-3-((2-propyl-2,3-dihydrobenzo[f][1,4]oxazepin-4(5H)-yl)methyl)phenyl)propanoic Acid, Formic Acid Salt], 100 to 1000 nM.

On to `CC[C@@H]1CN(Cc2cc(C(CC(=O)O)c3ccc4c(nnn4C)c3C)ccc2C)Cc2ccc(F)cc2O1` (stereo partly drawn) [Example 75, 3-(1,4-Dimethyl-1H-benzo[d][1,2,3]triazol-5-yl)-3-(3-(((R)-2-ethyl-8-fluoro-2,3-dihydrobenzo[f][1,4]oxazepin-4(5H)-yl)methyl)-4-methylphenyl)propanoic Acid, Formic Acid Salt], for which the EC50 lay within 100 to 1000 nM.

Turning to `CCC1CN(Cc2cc([C@H](c3ccc4c(nnn4C)c3C)C(C)C(=O)O)ccc2C)Cc2ccccc2O1` (stereo partly drawn) [Example 102, (3R)-3-(1,4-dimethyl-1H-benzo[d][1,2,3]triazol-5-yl)-3-(3-((2-ethyl-2,3-dihydrobenzo[f][1,4]oxazepin-4(5H)-yl)methyl)-4-methylphenyl)-2-methylpropanoic Acid], the concentration giving a half-maximal response (EC50) was less than 1 nM. Turning to `Cc1ccc([C@H](CC(=O)O)c2ccc3c(nnn3C)c2C)cc1CN1Cc2ccncc2OC(C)(C)C1` [Example 264, (S)-3-(1,4-dimethyl-1H-benzo[d][1,2,3]triazol-5-yl)-3-(3-((2,2-dimethyl-2,3-dihydropyrido[4,3-f][1,4]oxazepin-4(5H)-yl)methyl)-4-methylphenyl)propanoic acid], the EC50 was 1000 to 10000 nM.

With `CCC1Cc2c(F)cccc2CN(Cc2cc(C(c3ccc4c(nnn4C)c3C)C(C)(C)C(=O)O)ccc2C)C1` (stereo not shown) [Example 36, 3-(1,4-Dimethyl-1H-benzo[d][1,2,3]triazol-5-yl)-3-(3-((4-ethyl-6-fluoro-4,5-dihydro-1H-benzo[c]azepin-2(3H)-yl)methyl)-4-methylphenyl)-2,2-dimethylpropanoic acid], the EC50 lay within 1 to 10 nM. On the same count and under the same terms, the same measure for `CC[C@@H]1CN(Cc2cc(C(Cc3nnn[nH]3)c3ccc4c(nnn4C)c3C)ccc2C)Cc2ccccc2O1` (stereo partly drawn) [Example 112, (2R)-4-(5-(1-(1,4-dimethyl-1H-benzo[d][1,2,3]triazol-5-yl)-2-(1H-tetrazol-5-yl)ethyl)-2-methylbenzyl)-2-ethyl-2,3,4,5-tetrahydrobenzo[f][1,4]oxazepine, Formic Acid Salt]: 100 to 1000 nM; for `Cc1ccc([C@@H](CC(=O)O)c2ccc3c(nnn3C)c2C)cc1CN1Cc2ccc(F)cc2OC(C)(C)C1` [Example 59, (R)-3-(1,4-Dimethyl-1H-benzo[d][1,2,3]triazol-5-yl)-3-(3-((8-fluoro-2,2-dimethyl-2,3-dihydrobenzo[f][1,4]oxazepin-4(5H)-yl)methyl)-4-methylphenyl)propanoic acid]: 10 to 100 nM. The same measure, in the same setting: the same measure for `Cc1ccc(C(c2ccc3c(nnn3C)c2C)C(C)(C)C(=O)O)cc1Cn1ccnc1CN1C2CCC1CC2` (stereo not shown) [Example 155, 3-(3-((2-(7-Azabicyclo[2.2.1]heptan-7-ylmethyl)-1H-imidazol-1-yl)methyl)-4-methylphenyl)-3-(1,4-dimethyl-1H-benzo[d][1,2,3]triazol-5-yl)-2,2-dimethylpropanoic Acid, Trifluoroacetic Acid Salt]: 10 to 100 nM; for `Cc1ccc(C(CC(=O)O)c2ccc3c(nnn3C)c2C)cc1CN1CCOc2ccccc2C1` (stereo not shown) [Example 1, 3-(3-((2,3-Dihydrobenzo[f][1,4]oxazepin-4(5H)-yl)methyl)-4-methylphenyl)-3-(1,4-dimethyl-1H-benzo[d][1,2,3]triazol-5-yl)propanoic Acid, Trifluoroacetic Acid Salt]: 1000 to 10000 nM; for `Cc1ccc(C(CC(=O)O)c2ccc3c(nnn3C)c2C)cc1CN1Cc2cccnc2OC(C)(C)C1` (stereo not shown) [Example 96, 3-(1,4-Dimethyl-1H-benzo[d][1,2,3]triazol-5-yl)-3-(3-((2,2-dimethyl-2,3-dihydropyrido[3,2-f][1,4]oxazepin-4(5H)-yl)methyl)-4-methylphenyl)propanoic Acid]: 100 to 1000 nM.

In the case of `Cc1ccc(C(c2ccc3c(nnn3C)c2C)C(C)(C)C(=O)O)cc1Cn1ccnc1CC1CCCCCC1` (stereo not shown) [Example 131, 3-(3-((2-(Cycloheptylmethyl)-1H-imidazol-1-yl)methyl)-4-methylphenyl)-3-(1,4-dimethyl-1H-benzo[d][1,2,3]triazol-5-yl)-2,2-dimethylpropanoic acid], the EC50 lay in the range of 100 to 1000 nM.

In the case of `Cc1ccc([C@@H](c2ccc3c(nnn3C)c2C)C(C)(C)C(=O)O)cc1CN1CCC[C@H](n2cccn2)C1` [Example 183, (S)-3-(3-(((S)-3-(1H-Pyrazol-1-yl)piperidin-1-yl)methyl)-4-methylphenyl)-3-(1,4-dimethyl-1H-benzo[d][1,2,3]triazol-5-yl)-2,2-dimethylpropanoic Acid], the EC50 was 10 to 100 nM. As for `CC[C@@H]1CN(Cc2cc([C@@H](c3ccc4c(nnn4C)c3C)C(C)(C)C(=O)OCOC(=O)C(C)(C)C)ccc2C)Cc2cnccc2O1` [Example 253, (S)-(Pivaloyloxy)methyl 3-(1,4-dimethyl-1H-benzo[d][1,2,3]triazol-5-yl)-3-(3-(((R)-2-ethyl-2,3-dihydropyrido[3,4-f][1,4]oxazepin-4(5H)-yl)methyl)-4-methylphenyl)-2,2-dimethylpropanoate], the EC50 is less than 1 nM. On the same count and under the same terms, the same measure for `CC[C@@H]1CN(Cc2cc([C@@H](c3ccc4c(nnn4C)c3C)C(C)(C)C(=O)O)ccc2C)Cc2cnc(Cl)cc2O1` [Example 29]: less than 1 nM; for `Cc1ccc([C@@H](c2ccc3c(nnn3C)c2C)[C@@H](C)C(=O)O)cc1CN1Cc2cnccc2OC(C)(C)C1` [Example 203, (2R,3S)-3-(1,4-Dimethyl-1H-benzo[d][1,2,3]triazol-5-yl)-3-(3-((2,2-dimethyl-2,3-dihydropyrido[3,4-f][1,4]oxazepin-4(5H)-yl)methyl)-4-methylphenyl)-2-methylpropanoic Acid, 0.2 Formic Acid Salt]: 10 to 100 nM.

One may read the EC50 as the concentration needed to bring the measured effect to its halfway point.
